In US20200222474A1, “COMPOSITIONS AND METHODS FOR INCREASING PHYTOCHEMICAL BIOAVAILABLITY AND BIOACTIVITY” (North Carolina State University, priority 2017, published 2020):

Tested on: L. acidophilus NCFM
Assay: RNA-seq transcriptional analysis of L. acidophilus NCFM growing on plant glycosides
Assay type: cell-based, Lactobacillus acidophilus
[1] = LBA0329 Putative cell division protein, COG D
[2] = LBA0466 Hypothetical protein, COG C
[3] = LBA0500 MSM operon repressor, COG K
[4] = LBA0545 Hypothetical protein, COG L
[5] = LBA0547 Putative site-specific recombinase, COG L
[6] = LBA0573 Putative transcriptional regulator, COG K
[7] = LBA0607 Putative transcriptional regulator, COG K
[8] = LBA0672 Putative phosphate starvation inducible protein stress related, COG J
[9] = LBA0753 Multi-drug-type permease, COG GEPR
[10] = LBA0886 Sugar kinase-putative transcriptional regulator, COG KG
[11] = LBA0887 Hypothetical protein, COG C
[12] = LBA0897 Putative Cro-like protein, COG K
[13] = LBA0910 L-lactate dehydrogenase, COG C
[14] = LBA1021 Putative transcriptional regulator, COG K
[15] = LBA1220 Pyridine mercuric reductase, COG C
[16] = LBA1392 Mucus binding protein precursor Mub, COG J
[17] = LBA1411 Fumarate reductase flavoprotein subunit, COG CS
[18] = LBA1436 Glycerol uptake facilitator protein, COG G
[19] = LBA1457 Galactose-1-epimerase, COG G
[20] = LBA1458 Galactose-1-phosphate uridylyltransferase, COG G
[21] = LBA1462 Beta-galactosidase, COG G
[22] = LBA1463 Lactose permease, COG G
[23] = LBA1465 Transcription repressor of beta-galactosidasegene, COG K
[24] = LBA1467 Beta-galactosidase large subunit (lactase), COG G
[25] = LBA1468 Beta-galactosidase small subunit, COG G

## N#C[C@H](O[C@@H]1O[C@H](CO[C@@H]2O[C@H](CO)[C@@H](O)[C@H](O)[C@H]2O)[C@@H](O)[C@H](O)[C@H]1O)c1ccccc1 [Amygdalin]
LBA0016 Fructokinase, COG KG
  Log2 differential normalized TPM ratio compared to glucose: 2.4
  Log2 differential normalized TPM ratio compared to lactose: 1.2
  Transcripts per million (rpm): 387.4 rpm
[1]
  Log2 differential normalized TPM ratio compared to glucose: −0.1
  Log2 differential normalized TPM ratio compared to lactose: −0.5
  Transcripts per million (rpm): 12.3 rpm
[2]
  Log2 differential normalized TPM ratio compared to glucose: 5.2
  Log2 differential normalized TPM ratio compared to lactose: 3.7
  Transcripts per million (rpm): 2769.5 rpm
[3]
  Log2 differential normalized TPM ratio compared to glucose: 2
  Log2 differential normalized TPM ratio compared to lactose: 0.4
  Transcripts per million (rpm): 169.5 rpm
[4]
  Log2 differential normalized TPM ratio compared to glucose: 2
  Log2 differential normalized TPM ratio compared to lactose: 0
  Transcripts per million (rpm): 244.7 rpm
[5]
  Log2 differential normalized TPM ratio compared to glucose: 1.5
  Log2 differential normalized TPM ratio compared to lactose: −0.3
  Transcripts per million (rpm): 24.9 rpm
[6]
  Log2 differential normalized TPM ratio compared to glucose: −1.5
  Log2 differential normalized TPM ratio compared to lactose: −1.6
  Transcripts per million (rpm): 26.5 rpm
[7]
  Log2 differential normalized TPM ratio compared to glucose: 2.7
  Log2 differential normalized TPM ratio compared to lactose: 2.2
  Transcripts per million (rpm): 252.9 rpm
[8]
  Log2 differential normalized TPM ratio compared to glucose: 2.7
  Log2 differential normalized TPM ratio compared to lactose: 1.9
  Transcripts per million (rpm): 8689.6 rpm
[9]
  Log2 differential normalized TPM ratio compared to glucose: −0.6
  Log2 differential normalized TPM ratio compared to lactose: 0.1
  Transcripts per million (rpm): 26.1 rpm
[10]
  Log2 differential normalized TPM ratio compared to glucose: 2.2
  Log2 differential normalized TPM ratio compared to lactose: 2
  Transcripts per million (rpm): 25.1 rpm
[11]
  Log2 differential normalized TPM ratio compared to glucose: 2.4
  Log2 differential normalized TPM ratio compared to lactose: 1.2
  Transcripts per million (rpm): 247 rpm
[12]
  Log2 differential normalized TPM ratio compared to glucose: −2.3
  Log2 differential normalized TPM ratio compared to lactose: 0.2
  Transcripts per million (rpm): 0.4 rpm
[13]
  Log2 differential normalized TPM ratio compared to glucose: 3.9
  Log2 differential normalized TPM ratio compared to lactose: 2.9
  Transcripts per million (rpm): 1594.3 rpm
[14]
  Log2 differential normalized TPM ratio compared to glucose: −1.2
  Log2 differential normalized TPM ratio compared to lactose: −1.5
  Transcripts per million (rpm): 52.4 rpm
[15]
  Log2 differential normalized TPM ratio compared to glucose: 1.2
  Log2 differential normalized TPM ratio compared to lactose: 0.2
  Transcripts per million (rpm): 377.5 rpm
[16]
  Log2 differential normalized TPM ratio compared to glucose: 0.8
  Log2 differential normalized TPM ratio compared to lactose: 1.1
  Transcripts per million (rpm): 148.6 rpm
[17]
  Log2 differential normalized TPM ratio compared to glucose: 4
  Log2 differential normalized TPM ratio compared to lactose: 2.9
  Transcripts per million (rpm): 28.7 rpm
[18]
  Log2 differential normalized TPM ratio compared to glucose: 7.2
  Log2 differential normalized TPM ratio compared to lactose: 3.5
  Transcripts per million (rpm): 328.8 rpm
[19]
  Log2 differential normalized TPM ratio compared to glucose: 2.6
  Log2 differential normalized TPM ratio compared to lactose: −3
  Transcripts per million (rpm): 74.9 rpm
[20]
  Log2 differential normalized TPM ratio compared to glucose: 2.8
  Log2 differential normalized TPM ratio compared to lactose: −2.9
  Transcripts per million (rpm): 74 rpm
LBA1459 Galactokinase, COG G
  Log2 differential normalized TPM ratio compared to glucose: 1.8
  Log2 differential normalized TPM ratio compared to lactose: −2.8
  Transcripts per million (rpm): 70.3 rpm
[21]
  Log2 differential normalized TPM ratio compared to glucose: −0.5
  Log2 differential normalized TPM ratio compared to lactose: −6.5
  Transcripts per million (rpm): 10.2 rpm
[22]
  Log2 differential normalized TPM ratio compared to glucose: 0.2
  Log2 differential normalized TPM ratio compared to lactose: −4.5
  Transcripts per million (rpm): 50.7 rpm
LBA1464 Transposase, COG L
  Log2 differential normalized TPM ratio compared to glucose: −0.1
  Log2 differential normalized TPM ratio compared to lactose: −2.5
  Transcripts per million (rpm): 133.1 rpm
[23]
  Log2 differential normalized TPM ratio compared to glucose: −0.1
  Log2 differential normalized TPM ratio compared to lactose: −3.2
  Transcripts per million (rpm): 43.7 rpm
[24]
  Log2 differential normalized TPM ratio compared to glucose: 3.3
  Log2 differential normalized TPM ratio compared to lactose: −5.5
  Transcripts per million (rpm): 42.2 rpm
[25]
  Log2 differential normalized TPM ratio compared to glucose: 1.8
  Log2 differential normalized TPM ratio compared to lactose: −4.6
